Source: PMC6340882, “Targeting protein kinase CK2 and CDK4/6 pathways with a multi-kinase inhibitor ON108110 suppresses pro-survival signaling and growth in mantle cell lymphoma and T-acute lymphoblastic leukemia” (Oncotarget, 2018)

What was measured:
HBL2 = assay: Growth inhibition (GI50), Cell Titer Blue; assay type: cell-based; details: Homo sapiens; HBL2, Mantle Cell Lymphoma; 96 hrs post-treatment
Method: (§1) Cell lines were cultured in RPMI-1640 medium (Thermo Scientific) supplemented with 10% heat inactivated FBS and penicillin-streptomycin at 37°C under humidified conditions and 5% CO2. All cell lines tested negative for mycoplasma. […] Compounds were added 24 hrs post-plating at the indicated concentrations. Cell counts were determined from duplicate wells 96 hrs post-treatment using the Cell Titer Blue assay in conjunction with the GloMax plate reader (Promega).

RS-4-11 = assay: Growth inhibition (GI50), Cell Titer Blue; assay type: cell-based; details: Homo sapiens, RS4-11; RS-4-11, Acute Lymphoblastic Leukemia; 96 hrs post-treatment
Method: as §1

MiaPaca-2 = assay: Growth inhibition (GI50), Cell Titer Blue; assay type: cell-based; details: Homo sapiens, MIA PaCa-2; MiaPaca-2, Pancreatic Cancer; 96 hrs post-treatment
Method: as §1

LnCap = assay: Growth inhibition (GI50), Cell Titer Blue; assay type: cell-based; details: Homo sapiens, Prostate Cancer, 96 hrs post-treatment
Method: as §1

K562 = assay: Growth inhibition (GI50), Cell Titer Blue; assay type: cell-based; details: Homo sapiens; K562, Chronic Myeloid Leukemia; 96 hrs post-treatment
Method: as §1

BT-20 = assay: Growth inhibition (GI50), Cell Titer Blue; assay type: cell-based; details: Homo sapiens; BT-20, Breast Cancer; 96 hrs post-treatment
Method: as §1

Granta-519 and CEM cells = assay: Cell cycle analysis, propidium iodide staining and flow cytometry; assay type: cell-based, human; details: 0.5-2.0μM, 24 hours
Method: Figure 5 Modulation of cell cycle expression and induction of apoptosis in ON 108110-treated MCL and T-ALL cell lines (A) CEM and Granta-519 cells were treated with either DMSO or increasing concentrations of ON108110 (0.5-2.0μM) for 24 hours. Cell cycle analysis was performed using propidium iodide staining. (B) CEM, HBL-2, RS4-11 and Granta-519 cells were treated with either DMSO (vehicle) or increasing concentrations of ON108110 (0.5-2.0 μM) for 24 hours and stained with Annexin V/DAPI (C) Graphical representation of apoptosis induced as shown in B. (D) Granta-519 cells were treated with increasing concentrations of ON108110 for 24 hours. Caspase activation and viability were measured using the Caspase Glo 3/7 and Cell Titer Blue assay kits, respectively. […]
To determine cell cycle distribution, 70% ethanol fixed cells were washed with phosphate buffered saline (PBS), resuspended in PBS and incubated with RNase and propidium iodide at 37°C for 20 min. DNA content was analyzed on a FACS Calibur (BD Immunocytometry Systems) and the data analyzed using Flowjo software (Treestar). Annexin V staining was measured using the FITC Annexin V Apoptosis Detection Kit I (BD Biosciences) according to the instructions of the manufacturer except that DAPI was substituted at a concentration of […] to measure DNA content.

[1] = Growth inhibition (GI50), Cell Titer Blue; assay type: cell-based, human; details: normal human peripheral blood mononuclear cells (hPBMC); hPBMC, Normal Human Peripharal Mononuclear Cells; 96 hrs post-treatment
Method: as §1
(§2) Peripheral blood samples were obtained from patients at the Icahn School of Medicine at Mount Sinai with informed and written consent for tissue banking following a protocol approved by the Institutional Review Board (MSSM IRB#11-1669) and in accordance with the Declaration of Helsinki. Peripheral blood mononuclear cells were pelleted by low-speed centrifugation, resuspended in media composed of 90% fetal bovine serum (FBS) and 10% DMSO (Sigma), frozen slowly in the vapor phase of liquid nitrogen in multiple cryovials, and stored in liquid nitrogen.

hPBMC = assay: Growth inhibition (GI50), Cell Titer Blue; assay type: cell-based, human; details: normal human cells (Table 1)
Method: as §1, §2

CDK6 = CDK6 (Homo sapiens, UniProt Q00534); assay: In vitro kinase assay with recombinant protein (32P-ATP, filtermat); assay type: biochemical; details: recombinant CDK6, independent in vitro kinase assay, 20μM ATP
CDK6, sequence (Q00534 whole entry): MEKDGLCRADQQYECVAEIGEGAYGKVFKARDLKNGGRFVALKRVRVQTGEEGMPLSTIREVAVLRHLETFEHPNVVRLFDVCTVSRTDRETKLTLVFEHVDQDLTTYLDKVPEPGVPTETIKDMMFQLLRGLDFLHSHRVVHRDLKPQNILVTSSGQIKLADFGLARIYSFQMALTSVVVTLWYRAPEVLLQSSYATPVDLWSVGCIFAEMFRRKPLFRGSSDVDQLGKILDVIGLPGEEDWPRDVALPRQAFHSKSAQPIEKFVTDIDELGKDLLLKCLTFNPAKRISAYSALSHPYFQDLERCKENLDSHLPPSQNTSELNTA
CDK6, sequence (P24385 whole entry partner): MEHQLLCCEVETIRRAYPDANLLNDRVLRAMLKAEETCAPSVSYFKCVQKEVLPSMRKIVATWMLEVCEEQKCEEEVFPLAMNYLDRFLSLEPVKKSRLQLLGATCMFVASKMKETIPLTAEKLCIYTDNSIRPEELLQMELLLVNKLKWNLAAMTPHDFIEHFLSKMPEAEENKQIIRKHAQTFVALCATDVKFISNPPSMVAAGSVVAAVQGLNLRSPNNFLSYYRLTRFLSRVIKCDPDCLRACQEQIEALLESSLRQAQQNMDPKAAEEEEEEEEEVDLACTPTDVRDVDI
Method: Figure 1 ON108110 is a multi-kinase inhibitor (A) Structure of the ON108XXO benzo thiazolidinnes chemotype. (B) Structure of ON108110. (C) Calculation of IC50 values against CDK4 and CDK6 and (D) CK2α1 and CK2α2 by ON108110. Recombinant proteins were incubated with the indicated concentrations of ON108110 and subjected to in vitro kinase assays as described in the materials and methods section. Values obtained were plotted as a function of log drug concentration. IC50 values were determined by performing sigmoidal non-linear regression with a variable slope.
Initial testing of ON108110 against a panel of 285 functional kinases was performed by Reaction Biology Corp (Malvern, PA). Recombinant CDK4/CYCLIN D1 or CK2α1 were mixed with their respective synthetic peptide substrates (10ng) and incubated with DMSO or increasing concentrations of ON108110 in 20μl kinase buffer [50mM Tris-HCl (pH 7.5), 10mM MgCl2, 1mM EGTA, 2mM DTT and 0.01% NP-40] for 30 min. at room temperature. Kinase reactions were carried out for 20 min at 30°C in the presence of 5μl of substrate-ATP mixture (1μg RB, 20μM ATP, 20μCi γ-^32P-ATP). […] The filtermat was then air-dried and analyzed using a phosphoimager. Densitometric values were plotted as a function of log drug concentration using Prism 4 GraphPad software and the IC50 values determined by plotting sigmoidal non-linear regression curves with variable slope (n=3).

CC(=O)Oc1ccc(/C=C2\Sc3ccc(F)cc3NC2=O)cc1[N+](=O)[O-] [ON108110]
GI50 (HBL2): 250 nM | GI50 (RS-4-11): 240 nM | GI50 (MiaPaca-2): 2600 nM | GI50 (LnCap): > 5 µM | GI50 (K562): 2200 nM | GI50 (BT-20): 2500 nM | effect on cell cycle progression (Granta-519 and CEM cells): rapid accumulation of the cells in the G1 phase | GI50 at 96 h [1]: > 5 µM | cytotoxicity towards normal human cells (hPBMC): little or no cytotoxicity | IC50 (CDK6): 10 nM
